Values quoted from earlier work as cited in publication PMC4862372 (Bioorganic & medicinal chemistry, 2016).

Tested on: Huh7 cells
Details: high-throughput screen performed by GNF

Compound: O=C(NCCc1nc(-c2ccccc2)cs1)c1ccccc1 [Compound 1, 2-(2-Benzamido)ethyl-4-phenylthiazole]
- Toxicity to mammalian (Huh7) cells: non-toxic
